The subject of this test is trigemino-vascular system. As to the kind of experiment: Trigeminal nerve model in anaesthetised cats (TGN stimulation-induced reduction in carotid vascular resistance). The settings on record: for % Change in TGN-reduction in carotid vascular resistance at 4 hours following continuous iv infusion (mean ± sem) / % Changes of TGW-induced reduction in carotid vascular resistance 3 hours (mean ± sem): anaesthetised cat. The format is in vivo, cat. The procedure: Trigeminal nerve model in anaesthetised cats
Cats were anaesthetised with α-chloralose (90-110 mg/kg i.v.) and artificially respired with room air. Body temperature was maintained at 37-38 C. A femoral artery was cannulated for recording of blood pressure and heart rate. Arterial blood flow was recorded by a Doppler flow probe placed around the right common carotid artery. Bipolar stainless electrodes were stereotaxically placed into each trigeminal ganglion. Guanethidine (3 mg/kg i.v.) was then administered and 45 min allowed for stabilisation. […]

The mark [1] stands for this setting: continuous iv infusion 3.4 μmol/h, at 4 hours.
[2] abbreviates: intraduodenal administration 10 mg.kg, after 3 hours.
Setting [3] is: intravenous administration at 3.4 μmol/h, at 4 hours.

Each structure is given as a SMILES string.

`CC(=O)c1ccc2c(c1)[C@H](NC(=O)c1ccc(F)c(Cl)c1)[C@H](O)C(C)(C)O2` (relative stereo) [Compound 2, cis-6-acetyl-4S-(3-chloro-4-fluorobenzoylamino)-3,4-dihydro-2,2-dimethyl-2H-1-benzopyran-3S-ol]: the “% Change in TGN-reduction in carotid vascular resistance at 4 hours following continuous iv infusion (mean ± sem)” value was −30.0 ± 6.6 % under setting [1] and −21.8 ± 14 % (continuous iv infusion 11 μmol/h, at 4 hours). Moreover, the “% Changes of TGW-induced reduction in carotid vascular resistance 3 hours (mean ± sem)” value (intraduodenal 10 mg/kg in methylcellulose) was −69%. Moreover, the “inhibition of TGN-induced reduction in carotid vascular resistance (in words)” value by setting is: under setting [2], “significant inhibition”; under setting [3], “significant inhibition”.

`CC(=O)c1ccc2c(c1)[C@H](NC(=O)c1ccc(F)cc1)[C@@H](O)C(C)(C)O2` (relative stereo) [Compound 1, trans-6-acetyl-4S-(4-fluorobenzoylamino)-3,4-dihydro-2,2-dimethyl-2H-1-benzopyran-3R-ol]: the “% Change in TGN-reduction in carotid vascular resistance at 4 hours following continuous iv infusion (mean ± sem)” value under setting [1] is on record as −29.1 ± 3.7 %. For the setting “intraduodenal 10 mg/kg in labrasol”, the “% Changes of TGW-induced reduction in carotid vascular resistance 3 hours (mean ± sem)” value was −43 ± 12.9 %. Moreover, the “inhibition of TGN-induced reduction in carotid vascular resistance (in words)” value was “significant inhibition” under setting [2] and “significant inhibition” under setting [3].

Consider `CC(=O)c1ccc2c(c1)[C@H](NC(=O)c1cc(F)cc(F)c1)[C@@H](O)C(C)(C)O2` (relative stereo) [Compound 3, trans-6-acetyl-4S-(3,5-difluorobenzoylamino)-3,4-dihydro-2,2-dimethyl-2H-1-benzopyran-3R-ol], for which the “effects on TGN stimulation-induced reductions in carotid vascular resistance (in words)” value (guanethidine treated anaesthetised cat) is “marked effects”. In addition, where the note is “guanethidine treated anaesthetised cat, intraduodenal bolus 10 mg/kg, 2 hours post administration, n=4”, the “inhibition of trigeminal nerve mediated responses” value was 77%.

These data come from patent US20020010209A1, “Use of benzopyranols to treat neurological disorders” (priority 1996, published 2002).
